“Also recorded” adds a separate entry of the source. Read-outs that look alike come from different tables or passages of the source.
Legend:
[1] = assay type: physicochemical
[2] = assay type: physicochemical; remark: listed apart in the source
[3] = assay type: physicochemical; remark: listed apart in the source
[4] = assay type: physicochemical; remark: listed apart in the source
[5] = assay type: physicochemical; conditions: pH 4
[6] = assay type: physicochemical; remark: listed apart in the source
[7] = assay type: physicochemical; remark: listed apart in the source
[8] = cited from earlier work

N=C1NC(O)C2C3OC4(O)O[C@@H](C(O)C2(N1)[C@@H]4O)C3(O)CO (stereo partly shown) [TTX, octahydro-12-(hydroxymethyl)-2-imino-5,9:7,10a-dimethano-10aH-(1,3)dioxocino(6,5-d)-pyrimidine-4,7,10,11,12-pentanol]
solubility of TTX in a combination of organic solvents and acids [1]: below 30 μg/ml | TTX Solubility ([1]; pH 3.7): Not soluble | TTX Solubility ([1]; pH 4.6): Not soluble | TTX solubility (observation) [2]: Deposits in the vial; also recorded: Partially solubilized; also recorded: Almost fully solubilized | concentration at which TTX was found to be solubilized [3]: 300 µg/mL | concentration at which TTX was found to be solubilized [4]: 300 µg/mL | concentration up to which TTX was sufficiently soluble [5]: ≥ 300 µg/mL | concentration up to which TTX was soluble [6]: about 150 ug/mL | solubility of TTX in pure organic solvents [7]: below 30 μg/ml | pKa [8]: 9.4
